Data as given in patent US5688824A, “Use of leflunomide to prevent or control xenograft rejection” (priority 1996, dated 1997).
Like-named read-outs stand apart in the source and are kept apart here.

How the values were obtained:
[1] = system: heterotopic small intestinal transplantation; settings: cited from earlier work
cGvH disease or SLE = settings: mouse, U.S. Pat. No. 4,965,276; cited from earlier work
[2] = system: human peripheral blood lymphocytes; assay: one-way mixed lymphocyte reaction (3H-thymidine uptake); format: cell-based
Procedure: The effect of varying concentrations of leflunomide product (A771726, Hoechst AG Werk Albert, Wiesbaden, Germany) in combination with varying concentrations of rapamycin (Wyeth-Ayerst Research, Rouses Point, N.Y.) was evaluated in a one-way mixed lymphocyte reaction (MLR) performed according to Kahan et al., Transplantation, 51:232 (1991). Briefly, human peripheral blood lymphocytes (2×10^5 per well) were incubated with an equal number of gamma-irradiated, allogeneic peripheral blood lymphocytes for 5 days in the presence of varying concentrations of leflunomide and rapamycin. The lymphocytes were then incubated for 16 to 20 hours with 1 μCi/well of ^3 H-thymidine. The amount of ^3 H-thymidine uptake was measured, and the percent inhibition of proliferation by each drug or drug combination was calculated. Data from two trials appear below in Tables 4 and 5.

murine B-cell = settings: in vitro; cited from earlier work
murine T-cell = settings: in vitro; cited from earlier work
[3] = system: rejection of concordant hamster to rat cardiac xenografts; settings: earlier work, cited from earlier work
renal allograft = settings: BN-LEW renal transplant; cited from earlier work
SLE in MRL/lpr mice = settings: at the end of 10 weeks, mice with elevated urine protein; cited from earlier work
[4] = humans; cited from earlier work

C/C(O)=C(\C#N)C(=O)Nc1ccc(C(F)(F)F)cc1 [A771726, N-(4-trifluoromethylphenyl)-2-cyano-3-hydroxycrotonamide]
survival of recipients ([1]; 5 mg/kg/day by gavage for 7 days): 15.0 ± 2.1 days
survival of recipients ([1]; 5 mg/kg/day by gavage for 14 days): 21.2 ± 1.6 days
survival of recipients ([1]; 5 mg/kg/day by gavage for 28 days): 33.8 ± 2.4 days
glomerulonephritis, anti-dsDNA titer, GvH index, T-lymphocyte proliferative ability (cGvH disease or SLE): prevented development of glomerulonephritis, reduced anti-dsDNA titer, decreased the GvH index (a measure of relative spleen enlargement), and improved the diminished proliferative ability of T-lymphocytes
inhibition of development of cGvH disease or SLE (cGvH disease or SLE): effective in inhibiting the development of cGvH disease or SLE
% Inhibition of Lymphocyte Proliferation ([2]; 12.50 μM Lef, 0.00 nM Rapa, Table 4): 15.19%
% Inhibition of Lymphocyte Proliferation ([2]; 12.50 μM Lef, 0.00 nM Rapa, Table 5): 21.84%
% Inhibition of Lymphocyte Proliferation ([2]; 25.00 μM Lef, 0.00 nM Rapa, Table 4): 37.35%
% Inhibition of Lymphocyte Proliferation ([2]; 25.00 μM Lef, 0.00 nM Rapa, Table 5): 38.40%
% Inhibition of Lymphocyte Proliferation ([2]; 50.00 μM Lef, 0.00 nM Rapa, Table 4): 56.71%
% Inhibition of Lymphocyte Proliferation ([2]; 50.00 μM Lef, 0.00 nM Rapa, Table 5): 68.63%
inhibition of murine B-cell proliferation (murine B-cell): more potent inhibitor of B-cell proliferation
inhibition of murine T-cell proliferation (murine T-cell): inhibit murine B-cell and T-cell proliferation

O=P1(N(CCCl)CCCl)NCCCO1 (stereo not shown) [Cytoxan]
control of xenograft rejection ([3]; Cytoxan): can completely control rejection of xenografts
toxicity of required dose ([3]; Cytoxan): lethally toxic range

C=CC[C@@H]1/C=C(\C)C[C@H](C)C[C@H](OC)[C@H]2O[C@@](O)(C(=O)C(=O)N3CCCC[C@H]3C(=O)O[C@H](/C(C)=C/[C@@H]3CC[C@@H](O)[C@H](OC)C3)[C@H](C)[C@@H](O)CC1=O)[C@H](C)C[C@@H]2OC [FK-506]
effect on xenograft survival ([3]; hamster to rat cardiac xenograft): limited effect on xenograft survival even at lethal doses

Cn1cnc([N+](=O)[O-])c1Sc1ncnc2nc[nH]c12 [azathioprine]
protection (renal allograft): neither azathioprine nor prednisolone offered any protection

C[C@]12C=CC(=O)C=C1CC[C@@H]1[C@@H]2[C@@H](O)C[C@@]2(C)[C@H]1CC[C@]2(O)C(=O)CO [prednisolone]
protection (renal allograft): neither azathioprine nor prednisolone offered any protection
animals still alive (SLE in MRL/lpr mice): 40%

CO[C@H]1C[C@@H]2CC[C@@H](C)[C@@](O)(O2)C(=O)C(=O)N2CCCC[C@H]2C(=O)O[C@H]([C@H](C)C[C@@H]2CC[C@@H](O)[C@H](OC)C2)CC(=O)[C@H](C)/C=C(\C)[C@@H](O)[C@@H](OC)C(=O)[C@H](C)C[C@H](C)/C=C/C=C/C=C/1C [rapamycin]
% Inhibition of Lymphocyte Proliferation ([2]; 0.010 nM Rapa, 0.00 μM Lef, Table 4): 27.12%
% Inhibition of Lymphocyte Proliferation ([2]; 0.010 nM Rapa, 0.00 μM Lef, Table 5): 4.78%
% Inhibition of Lymphocyte Proliferation ([2]; 0.050 nM Rapa, 0.00 μM Lef, Table 4): 38.78%
% Inhibition of Lymphocyte Proliferation ([2]; 0.050 nM Rapa, 0.00 μM Lef, Table 5): 37.75%
% Inhibition of Lymphocyte Proliferation ([2]; 0.100 nM Rapa, 0.00 μM Lef, Table 4): 57.42%
% Inhibition of Lymphocyte Proliferation ([2]; 0.100 nM Rapa, 0.00 μM Lef, Table 5): 51.71%
% Inhibition of Lymphocyte Proliferation ([2]; 1.00 nM Rapa, 0.00 μM Lef, Table 4): 89.25%
% Inhibition of Lymphocyte Proliferation ([2]; 1.00 nM Rapa, 0.00 μM Lef, Table 5): 80.83%

Nc1ccc(C(F)(F)F)cc1 [trifluoromethyl aniline]
side effect of accumulation of the metabolite [4]: Heinz-body hemolytic anemia
